One may read the IC50 as the concentration at which inhibition is half-maximal.

Each structure is given as a SMILES string.

From US7750003B2, “Compounds-943” (AstraZeneca AB, priority 2006, dated 2010) come the findings set out here.

Sequence of recombinant mTOR (FLAG-tagged, residues 1362-2549) (P42345 1362-2549): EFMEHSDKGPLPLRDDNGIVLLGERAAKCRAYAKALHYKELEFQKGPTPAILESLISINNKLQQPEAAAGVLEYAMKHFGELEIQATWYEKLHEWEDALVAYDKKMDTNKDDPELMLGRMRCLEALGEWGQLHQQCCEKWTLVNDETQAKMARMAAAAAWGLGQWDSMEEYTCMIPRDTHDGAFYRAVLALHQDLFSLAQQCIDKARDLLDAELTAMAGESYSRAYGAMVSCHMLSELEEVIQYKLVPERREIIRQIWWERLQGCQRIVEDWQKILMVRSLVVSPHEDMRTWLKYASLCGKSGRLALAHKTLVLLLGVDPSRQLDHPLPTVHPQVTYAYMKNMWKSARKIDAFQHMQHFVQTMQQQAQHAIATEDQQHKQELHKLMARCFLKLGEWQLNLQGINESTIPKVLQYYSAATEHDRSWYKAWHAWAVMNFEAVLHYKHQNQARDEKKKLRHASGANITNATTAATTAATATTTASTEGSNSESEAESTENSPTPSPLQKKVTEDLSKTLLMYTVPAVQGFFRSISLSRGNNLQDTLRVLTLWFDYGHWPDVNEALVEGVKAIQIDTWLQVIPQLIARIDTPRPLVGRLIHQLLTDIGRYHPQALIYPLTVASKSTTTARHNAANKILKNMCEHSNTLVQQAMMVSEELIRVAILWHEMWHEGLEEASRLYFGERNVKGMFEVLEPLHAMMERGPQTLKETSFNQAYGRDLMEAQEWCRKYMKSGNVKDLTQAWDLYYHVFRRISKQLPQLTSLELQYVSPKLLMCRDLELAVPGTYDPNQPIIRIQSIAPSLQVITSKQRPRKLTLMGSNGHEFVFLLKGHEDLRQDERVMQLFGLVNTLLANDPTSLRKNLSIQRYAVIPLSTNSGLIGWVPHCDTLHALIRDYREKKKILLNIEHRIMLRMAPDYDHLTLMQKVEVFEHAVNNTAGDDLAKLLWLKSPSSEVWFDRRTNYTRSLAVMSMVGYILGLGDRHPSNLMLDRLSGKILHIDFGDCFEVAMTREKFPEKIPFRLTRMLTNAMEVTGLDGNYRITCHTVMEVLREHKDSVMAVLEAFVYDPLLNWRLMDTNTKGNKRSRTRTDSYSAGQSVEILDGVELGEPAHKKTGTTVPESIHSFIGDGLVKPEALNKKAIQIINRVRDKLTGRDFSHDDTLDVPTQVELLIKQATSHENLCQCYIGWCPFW

The test addresses recombinant mTOR (FLAG-tagged, residues 1362-2549) (Homo sapiens, UniProt P42345). The test is described as follows: In vitro mTOR kinase assay (Test (a), AlphaScreen). The following applies: ATP 20 μM, read-out: Test (a): IC50 versus mTOR kinase. It counts as biochemical. The method in brief:
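AlphaScreen read-out: a phospho-T389 p70 S6K antibody on acceptor beads captures the phosphorylated biotin-peptide on donor beads, with signal loss indicating inhibition.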
(In Alpha technology, singlet oxygen from a donor bead excites a nearby acceptor bead.)
Take `C[C@H]1COCCN1c1cc(CS(=O)(=O)c2ccc(F)cc2)nc(-c2ccc(NC(=O)NC3CC3)cc2)n1` [Example 43b, 3-cyclopropyl-1-[4-[4-[(4-fluorophenyl)sulfonylmethyl]-6-[(3S)-3-methylmorpholin-4-yl]pyrimidin-2-yl]phenyl]urea]: the IC50 stood at 0.15 µM.
For the compound `CC(=O)Nc1ccc(S(=O)(=O)Cc2cc(N3CCOC[C@@H]3C)nc(-c3ccc(NC(=O)NC4CC4)cc3)n2)cc1` [Example 43c, N-[4-[[2-[4-(cyclopropylcarbamoylamino)phenyl]-6-[(3S)-3-methylmorpholin-4-yl]pyrimidin-4-yl]methylsulfonyl]phenyl]acetamide], the IC50 stood at 0.013 µM.
The value for `C[C@H]1COCCN1c1cc(CS(=O)(=O)CCO)nc(-c2ccc(NC(=O)NC3CC3)cc2)n1` [Example 43d, 3-cyclopropyl-1-[4-[4-(2-hydroxyethylsulfonylmethyl)-6-[(3S)-3-methylmorpholin-4-yl]pyrimidin-2-yl]phenyl]urea] was 0.011 µM; that for `C[C@H]1COCCN1c1cc(CS(=O)(=O)c2nccs2)nc(-c2ccc(NC(=O)NC3CC3)cc2)n1` [Example 43e, 3-cyclopropyl-1-[4-[4-[(3S)-3-methylmorpholin-4-yl]-6-(1,3-thiazol-2-ylsulfonylmethyl)pyrimidin-2-yl]phenyl]urea] was 0.13 µM; that for `C[C@H]1COCCN1c1cc(CS(=O)(=O)c2ccccc2C(F)(F)F)nc(-c2ccc(NC(=O)NC3CC3)cc2)n1` [Example 43f, 3-cyclopropyl-1-[4-[4-[(3S)-3-methylmorpholin-4-yl]-6-[[2-(trifluoromethyl)phenyl]sulfonylmethyl]pyrimidin-2-yl]phenyl]urea] was 0.11 µM.
The value for `C[C@H]1COCCN1c1cc(CS(=O)(=O)CC(N)=O)nc(-c2ccc(NC(=O)NC3CC3)cc2)n1` [Example 43h, 2-[[2-[4-(cyclopropylcarbamoylamino)phenyl]-6-[(3S)-3-methylmorpholin-4-yl]pyrimidin-4-yl]methylsulfonyl]acetamide] was 0.0071 µM; that for `Cc1csc(S(=O)(=O)Cc2cc(N3CCOC[C@@H]3C)nc(-c3ccc(NC(=O)NC4CC4)cc3)n2)n1` [Example 43i, 3-cyclopropyl-1-[4-[4-[(3S)-3-methylmorpholin-4-yl]-6-[(4-methyl-1,3-thiazol-2-yl)sulfonylmethyl]pyrimidin-2-yl]phenyl]urea] was 0.058 µM; that for `CC(=O)NCCS(=O)(=O)Cc1cc(N2CCOC[C@@H]2C)nc(-c2ccc(NC(=O)NC3CC3)cc2)n1` [Example 43j, N-[2-[[2-[4-(cyclopropylcarbamoylamino)phenyl]-6-[(3S)-3-methylmorpholin-4-yl]pyrimidin-4-yl]methylsulfonyl]ethyl]acetamide] was 1.8 µM.
The value for `CN(CCO)C(=O)Nc1ccc(-c2nc(CS(C)(=O)=O)cc(N3CCOCC3)n2)cc1` [Example 45, 1-(2-Hydroxyethyl)-1-methyl-3-[4-[4-(methylsulfonylmethyl)-6-morpholin-4-yl-pyrimidin-2-yl]phenyl]urea] was 0.66 µM; that for `CS(=O)(=O)Cc1cc(N2CCOCC2)nc(-c2ccc(NC(=O)N3CCCCC3)cc2)n1` [Example 45a, N-[4-[4-(methylsulfonylmethyl)-6-morpholin-4-yl-pyrimidin-2-yl]phenyl]piperidine-1-carboxamide] was 0.63 µM.
Take `C[C@H]1COCCN1c1cc(CS(C)(=O)=O)nc(-c2ccc(NC(=O)N3CCC(N(C)C)CC3)cc2)n1` [Example 45ab, 4-dimethylamino-N-[4-[4-[(3S)-3-methylmorpholin-4-yl]-6-(methylsulfonylmethyl)pyrimidin-2-yl]phenyl]piperidine-1-carboxamide]: the IC50 was 0.39 µM.
Consider `CC(C)CNC(=O)Nc1ccc(-c2nc(CS(C)(=O)=O)cc(N3CCOCC3)n2)cc1` [Example 45b, 1-(2-methylpropyl)-3-[4-[4-(methylsulfonylmethyl)-6-morpholin-4-yl-pyrimidin-2-yl]phenyl]urea], for which the half-inhibitory concentration (IC50) amounted to 0.12 µM.
The value for `COCCCNC(=O)Nc1ccc(-c2nc(CS(C)(=O)=O)cc(N3CCOCC3)n2)cc1` [Example 45c, 1-(3-methoxypropyl)-3-[4-[4-(methylsulfonylmethyl)-6-morpholin-4-yl-pyrimidin-2-yl]phenyl]urea] was 0.082 µM; that for `CN(C)CCCCNC(=O)Nc1ccc(-c2nc(CS(C)(=O)=O)cc(N3CCOCC3)n2)cc1` [Example 45d, 1-(4-dimethylaminobutyl)-3-[4-[4-(methylsulfonylmethyl)-6-morpholin-4-yl-pyrimidin-2-yl]phenyl]urea] was 0.56 µM.
For `CS(=O)(=O)Cc1cc(N2CCOCC2)nc(-c2ccc(NC(=O)NCCN3CCNC3=O)cc2)n1` [Example 45e, 1-[4-[4-(methylsulfonylmethyl)-6-morpholin-4-yl-pyrimidin-2-yl]phenyl]-3-[2-(2-oxoimidazolidin-1-yl)ethyl]urea] the value was 0.56 µM; for `CS(=O)(=O)Cc1cc(N2CCOCC2)nc(-c2ccc(NC(=O)N3CCCC3)cc2)n1` [Example 45f, N-[4-[4-(methylsulfonylmethyl)-6-morpholin-4-yl-pyrimidin-2-yl]phenyl]pyrrolidine-1-carboxamide], 1.6 µM; for `CS(=O)(=O)Cc1cc(N2CCOCC2)nc(-c2ccc(NC(=O)N3CCOCC3)cc2)n1` [Example 45g, N-[4-[4-(methylsulfonylmethyl)-6-morpholin-4-yl-pyrimidin-2-yl]phenyl]morpholine-4-carboxamide], 0.041 µM.
Turning to `CS(=O)(=O)Cc1cc(N2CCOCC2)nc(-c2ccc(NC(=O)N3CCC(O)CC3)cc2)n1` [Example 45h, 4-hydroxy-N-[4-[4-(methylsulfonylmethyl)-6-morpholin-4-yl-pyrimidin-2-yl]phenyl]piperidine-1-carboxamide], the concentration for half-maximal inhibition (IC50) came out at 0.14 µM.
On to `CN(C)CCNC(=O)Nc1ccc(-c2nc(CS(C)(=O)=O)cc(N3CCOCC3)n2)cc1` [Example 45j, 1-(2-dimethylaminoethyl)-3-[4-[4-(methylsulfonylmethyl)-6-morpholin-4-yl-pyrimidin-2-yl]phenyl]urea], for which the half-maximal inhibitory concentration (IC50) stood at 0.72 µM.
The value for `CS(=O)(=O)Cc1cc(N2CCOCC2)nc(-c2ccc(NC(=O)NCCO)cc2)n1` [Example 45k, 3-(2-hydroxyethyl)-1-[4-[4-(methylsulfonylmethyl)-6-morpholin-4-yl-pyrimidin-2-yl]phenyl]urea] was 0.049 µM; that for `CCN(C)C(=O)Nc1ccc(-c2nc(CS(C)(=O)=O)cc(N3CCOCC3)n2)cc1` [Example 45l, 1-ethyl-1-methyl-3-[4-[4-(methylsulfonylmethyl)-6-morpholin-4-yl-pyrimidin-2-yl]phenyl]urea] was 1.1 µM.
Consider `CS(=O)(=O)Cc1cc(N2CCOCC2)nc(-c2ccc(NC(=O)N3CCCC(O)C3)cc2)n1` (centres unmarked) [Example 45m, 3-hydroxy-N-[4-[4-(methylsulfonylmethyl)-6-morpholin-4-yl-pyrimidin-2-yl]phenyl]piperidine-1-carboxamide], for which the 50% inhibitory concentration (IC50) amounted to 0.17 µM.
For `CS(=O)(=O)Cc1cc(N2CCOCC2)nc(-c2ccc(NC(=O)N3CCC(S(C)(=O)=O)C3)cc2)n1` (centres unmarked) [Example 45n, 3-methylsulfonyl-N-[4-[4-(methylsulfonylmethyl)-6-morpholin-4-yl-pyrimidin-2-yl]phenyl]pyrrolidine-1-carboxamide] the value was 0.63 µM.
